Data reported in patent US5629347A, “Aromatic compounds, pharmaceutical compositions containing them and their use in therapy” (Merck Sharp & Dohme Ltd., priority 1991, dated 1997).
Structures can show the parent of a compound that is named as a salt.

Molecular target: human NK1R (Homo sapiens, UniProt P25103)
Assay: biochemical
Type: binding
Conditions: for IC50: displacement of 125I-substance P, human NK1R in COS or CHO cells
Description: To express the cloned human neurokinin-1-receotor (NK1R) transiently in COS, the cDNA for the human NK1R was cloned into the expression vector pCDM9 which was derived from pCDM8 (INVITROGEN) by inserting the ampicillin resistance gene (nucleotide 1973 to 2964 from BLUESCRIPT SK+ (trademark, […], La Jolla, Calif., U.S.A.)) into the Sac II site. Transfection of 20 ug of the plasmid DNA into 10 million COS cells was achieved by electroporation in 800 μl of transfection buffer (135 mM NaCl, 1.2 mM CaCl2, 1.2 mM MgCl2, 2.4 mM K2 HPO4, 0.6 mM KH2 PO4, 10 mM glucose, 10 mM N-2-hydroxyethyl-piperazine-N'-2-ethane sulphonic acid (HEPES) pH 7.4) at 260 V and 950 μF using the IBI GENEZAPPER (trademark IBI, New Haven, Conn., U.S.A.). The cells were incubated in 10% fetal calf serum, 2 mM glutamine, 100 U/ml penicillin-streptomycin, and 90% DMEM media (GIBCO, Grand Island, N.Y., U.S.A.) in 5% CO2 at 37° C. for three days before the binding assay.
To establish a stable cell line expressing cloned human NK1R, the cDNA was subcloned into the vector pRcCMV (INVITROGEN). Transfection of 20 ug of the plasmid DNA into CHO cells was achieved by electroporation in 800 μl of transfection buffer supplemented with 0.625 mg/ml Herring sperm DNA at 300 V and 950 μF using the IBI GENEZAPPER (IBI). The transfected cells were incubated. in CHO media [10% fetal calf serum, 100 U/ml penicillin-streptomycin, 2 mM glutamine, 1/500 hypoxanthinethymidine (ATCC), 90% IMDM media (JRH BIOSCIENCES, Lenexa, Kans., U.S.A.), 0.7 mg/ml G418 (GIBCO)] in 5% CO2 at 37° C. until colonies were visible. Each colony was separated and propagated. The cell clone with the highest number of human NK1R was selected for subsequent applications such as drug screening.
The binding assay of human NK1R expressed in either COS or CHO cells is based on the use of ^125 I-substance P (^125 I-SP, from DU PONT, Boston, Mass.) as a radioactively labeled ligand which competes with unlabeled substance P or any other ligand for binding to the human NK1R. […] The tubes were incubated at 4° C. or at room temperature for 1 hour with gentle shaking. The bound radioactivity was separated from unbound radioactivity by GF/C filter (BRANDEL, Gaithersburg, Md.) which was prewetted with 0.1% polyethylenimine. The filter was washed with 3 ml of wash buffer (50 mM Tris pH 7.5, 5 mM MnCl2, 150 mM NaCl) three times and its radioactivity was determined by gamma counter.

human NK1R, sequence (P25103 whole entry): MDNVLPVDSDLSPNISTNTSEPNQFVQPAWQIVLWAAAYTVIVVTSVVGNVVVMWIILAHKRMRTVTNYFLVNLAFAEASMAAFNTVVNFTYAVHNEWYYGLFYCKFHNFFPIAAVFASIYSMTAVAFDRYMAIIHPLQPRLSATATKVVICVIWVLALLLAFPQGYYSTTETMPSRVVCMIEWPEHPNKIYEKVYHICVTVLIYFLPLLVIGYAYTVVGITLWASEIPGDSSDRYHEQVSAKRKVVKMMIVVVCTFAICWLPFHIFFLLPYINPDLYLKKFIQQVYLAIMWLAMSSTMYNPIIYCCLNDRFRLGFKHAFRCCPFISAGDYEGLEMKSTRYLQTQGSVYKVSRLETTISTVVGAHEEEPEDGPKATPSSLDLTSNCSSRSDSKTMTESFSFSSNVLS

Row | Compound | IC50 | also measured
1 | COc1cccc(C(Cc2ccccc2)C(N)COCc2cc(C(F)(F)F)cc(C(F)(F)F)c2)c1 (mixture of isomers) [70 (mixture of diastereomers), 2-Amino-1-((3,5-bis(trifluoromethyl)phenyl)methyloxy)-3-(3-methoxyphenyl)-4-phenylbutane] | 160 nM | –
2 | CC(NC(COCc1cc(C(F)(F)F)cc(C(F)(F)F)c1)C(c1ccccc1)c1ccccc1)C(N)=O (single isomer, unassigned) [41 (diastereomer A), 1-((3',5'-Bis(trifluoromethyl)phenyl)methyloxy)-2-((1-(carboxamido)ethyl)ammonium)-3,3-diphenylpropane oxalate salt] | 0.4 nM | –
3 | CC(NC(COCc1cc(C(F)(F)F)cc(C(F)(F)F)c1)C(c1ccccc1)c1ccccc1)C(N)=O (single isomer, unassigned) [41 (diastereomer B), 1-((3',5'-Bis(trifluoromethyl)phenyl)methyloxy)-2-((1-(carboxamido)ethyl)ammonium)-3,3-diphenylpropane oxalate salt] | 0.5 nM | –
4 | CC(N[C@H](COCc1cc(C(F)(F)F)cc(C(F)(F)F)c1)C(c1ccccc1)c1ccccc1)C(N)=O (single isomer, unassigned) [58 (diastereomer A)] | 0.4 nM | –
5 | CC(N[C@H](COCc1cc(C(F)(F)F)cc(C(F)(F)F)c1)C(c1ccccc1)c1ccccc1)C(N)=O (single isomer, unassigned) [58 (diastereomer B)] | 0.5 nM | –
6 | CC(c1cccc(Cl)c1)C(N)COCc1cc(C(F)(F)F)cc(C(F)(F)F)c1 (single isomer, unassigned) [71 (diastereomer B), 2-Amino-1-((3,5-bis(trifluoromethyl)phenyl)methyloxy)-3-(3-chlorophenyl)-butane] | – | inhibition at 0.3 µM (1 h, @ 0.3 μM, read-out: Substance P antagonism (%)): 42%
7 | Cc1cc(C)cc(COCC(N)C(c2ccccc2)c2ccccc2)c1 (stereo not drawn) [Example 1, 2-Ammoninm-1-((3,5-dimethylphenyl)methyloxy)-3,3-diphenylpronane tosylate salt] | 5.5 nM | –
8 | Cc1cc(C)cc(COCC(C(c2ccccc2)c2ccccc2)N(C)C)c1 (stereo not drawn) [Example 2, 2-Dimethylammonium-1-((3,5-dimethylphenyl)methyloxy)-3,3-diphenylpropane tosylate salt] | 2.4 nM | –
9 | COc1ccccc1CNC(=O)C(NC(=O)OC(C)(C)C)C(c1ccccc1)c1ccccc1 (stereo not drawn) [Example 3, 2-t-Butoxycarbonylamino-3,3-diphenylpropanoyl-(2-methoxyphenyl)methylamide] | – | inhibition at 10 µM (1 h, @ 10 μM, read-out: Substance P antagonism (%)): 77%
10 | COc1ccccc1CNC(=O)C(N)C(c1ccccc1)c1ccccc1 (stereo not drawn) [Example 4, 2-Ammonium-3,3-diphenylpropanoyl-(2-methoxyphenyl)methylamide tosylate salt] | 700 nM | –
11 | Cc1cc(C)cc(COC(=O)C(N)C(c2ccccc2)c2ccccc2)c1 (stereo not drawn) [Example 5, (3,5-Dimethylphenyl)methyl 2-ammonium-3,3-diphenylpropanoate tosylate salt] | 160 nM | –
12 | CNC(COCc1cc(C)cc(C)c1)C(c1ccccc1)c1ccccc1 (stereo not drawn) [Example 6, 2-Methylammonium-1-((3,5-dimethylphenyl)methyloxy)-3,3-diphenylpropane oxalate salt] | 10 nM | –
13 | CCNC(COCc1cc(C)cc(C)c1)C(c1ccccc1)c1ccccc1 (stereo not drawn) [Example 7, 2-Ethylammonium-1-((3,5-dimethylphenyl)methyloxy)-3,3-diphenylpropane oxalate salt] | 20 nM | –
14 | CCCNC(COCc1cc(C)cc(C)c1)C(c1ccccc1)c1ccccc1 (stereo not drawn) [Example 8, 2-Propylammonium-1-((3,5-dimethylphenyl)methyloxy)-3,3-diphenylpropane oxalate salt] | 90 nM | –
15 | Cc1cc(C)cc(COCC(NCC2CC2)C(c2ccccc2)c2ccccc2)c1 (stereo not drawn) [Example 9, 2-Cyclopropylmethylammonium-1-((3,5-dimethylphenyl)methyloxy)-3,3-diphenylpropane tosylate salt] | 100 nM | –
16 | C=CCNC(COCc1cc(C)cc(C)c1)C(c1ccccc1)c1ccccc1 (stereo not drawn) [Example 10, 2-Allylammonium-1-((3,5-dimethylphenyl)methyloxy)-3,3-diphenylpropane oxalate salt] | 70 nM | –
17 | Cc1cc(C)cc(COCC(NCc2ccccc2)C(c2ccccc2)c2ccccc2)c1 (stereo not drawn) [Example 11, 2-Benzylammonium-1-((3,5-dimethylphenyl)methyloxy)-3,3-diphenyl propane] | 320 nM | –

Row | Compound | IC50 | also measured
18 | Cc1cc(C)cc(COCC(C(c2ccccc2)c2ccccc2)[N+](C)(C)C)c1 (stereo not drawn) [Example 12, 1-((3,5-Dimethylphenyl)methyloxy)-3,3-diphenyl-2-(N,N,N-trimethylammonium)propane iodide salt] | 19 nM | –
19 | Cc1cc(C)cc(COCC(C(c2ccccc2)c2ccccc2)N2CCCC2)c1 (stereo not drawn) [Example 13, 3,3-Diphenyl-1-((3,5-dimethylphenyl)methyloxy)-2-(1-pyrrolidinium)propane tosylate salt] | 20 nM | –
20 | Cc1cc(C)cc(COCC(C(c2ccccc2)c2ccccc2)N2CCCCC2)c1 (stereo not drawn) [Example 14, 3,3-Diphenyl-1-((3,5-dimethylphenyl)methyloxy)-2-(piperidin-1-yl)propane hydrochloride salt] | 70 nM | –
21 | Cc1cc(C)cc(COCC(C(c2ccccc2)c2ccccc2)N2CCOCC2)c1 (stereo not drawn) [Example 15, 3,3-Diphenyl-1-((3,5-dimethylphenyl)methyloxy)-2-(4-morpholino)propane] | 100 nM | –
22 | NC(COCc1cc(Cl)cc(Cl)c1)C(c1ccccc1)c1ccccc1 (stereo not drawn) [Example 18, 2-Ammouinm-1-((3,5-dichlorophenyl)methyloxy)-3,3-diphenylpropane tosylate salt] | 22 nM | –
23 | NC(COCc1cccc(Cl)c1)C(c1ccccc1)c1ccccc1 (stereo not drawn) [Example 19, 2-Ammonium-1-((3-chlorophenyl)methyloxy)-3,3-diphenylpropane tosylate salt] | 120 nM | –
24 | COC(=O)CNC(COCc1cc(C)cc(C)c1)C(c1ccccc1)c1ccccc1 (stereo not drawn) [Example 20, 2-(N-(Carbomethoxymethyl)ammonium)-1-((3,5-dimethylphenyl)methyloxy)-3,3-diphenylpropane tosylate salt] | 40 nM | –
25 | Cc1cc(C)cc(COCC(NCC(N)=O)C(c2ccccc2)c2ccccc2)c1 (stereo not drawn) [Example 21, 2-(((Carboxamido)methyl)amino)-1-((3,5-dimethylphenyl)methyloxy)-3,3-diphenylpropane] | 3 nM | –
26 | Cc1cc(C)cc(COCC(NCCO)C(c2ccccc2)c2ccccc2)c1 (stereo not drawn) [Example 22, 2-(N-(2-Hydroxyethyl)ammonium)-1-((3,5-dimethylphenyl)methyloxy)-3,3-diphenylpropane oxalate salt] | 45 nM | –
27 | Cc1cc(C)cc(COCC(NC=O)C(c2ccccc2)c2ccccc2)c1 (stereo not drawn) [Example 23, 2-Formamido-1-((3,5-dimethylphenyl)methyloxy)-3,3-diphenylpronane] | 35 nM | –
28 | NC(COCc1cccc([N+](=O)[O-])c1)C(c1ccccc1)c1ccccc1 (stereo not drawn) [Example 24, 2-Ammonium-1-((3-nitrophenyl)methyloxy)-3,3-diphenylpropane oxalate salt] | 400 nM | –
29 | NC(COCc1ccccc1)C(c1ccccc1)c1ccccc1 (stereo not drawn) [Example 25, 2-Ammonium-1-benzyloxy-3,3-diphenylpropane oxalate salt] | 600 nM | –
30 | NC(COCc1cccc(I)c1)C(c1ccccc1)c1ccccc1 (stereo not drawn) [Example 26, oxalate salt] | 140 nM | –
31 | COc1cc(COCC(N)C(c2ccccc2)c2ccccc2)cc(OC)c1 (stereo not drawn) [Example 27, 2-Ammonium-1-((3,5-dimethoxyphenyl)methyloxy-3,3-diphenylpropane oxalate salt] | 70 nM | –
32 | Cc1ccc(C)c(COCC(N)C(c2ccccc2)c2ccccc2)c1 (stereo not drawn) [Example 28, 2-Ammonium-1-((2,5-dimethylphenyl)methyloxy)-3,3-diphenylpropane oxalate salt] | 300 nM | –
33 | N#Cc1cccc(COCC(N)C(c2ccccc2)c2ccccc2)c1 (stereo not drawn) [Example 29, 2-Ammoninm-1-((3-cyanophenyl)methyloxy)-3,3-diphenylpropane oxalate salt] | – | inhibition at 1 µM (1 h, @ 1 μM, read-out: Substance P antagonism (%)): 48%
